Test results as given in ChEMBL document CHEMBL5614418, “Discovery of novel dihydropyrrolidone-thiadiazole compound crosstalk between the YycG/F two-component regulatory pathway and cell membrane homeostasis to combat methicillin-resistant Staphylococcus aureus” (Eur J Med Chem, 2024).
≈ marks a conversion by molar mass, not a printed value.

Columns and labels:
Enterococcus faecalis = assay: Antibacterial activity against Enterococcus faecalis OG1RF by broth microdilution method; type: functional
Enterococcus faecium = assay: Antibacterial activity against Enterococcus faecium EFM64 by broth microdilution method; type: functional
Staphylococcus aureus = assay: Antibacterial activity against methicillin sensitive Staphylococcus aureus SA113 by broth microdilution method; type: functional
[1] = Hemolytic activity against human erythrocytes measured after 1 hr; type: toxicity, cell-based, Erythrocyte
[2] = Cytotoxicity against human LX2 cells incubated for 24 hrs by CCK8 assay; type: toxicity, cell-based; settings: LX-2 cells
[3] = tested on: Staphylococcus epidermidis; assay: Antibacterial activity against Staphylococcus epidermidis SE1457 by broth microdilution method; type: functional

SMILES	MIC (Enterococcus faecalis) [µM]	MIC (Enterococcus faecium) [µM]	MIC (Staphylococcus aureus) [µM]	MIC [3] [µM]	HC50 at 1 h [1] [µM]	CC50 at 24 h [2] [µM]
O=C(C1=C(O)C(=O)N(c2nnc(SCc3ccccc3)s2)C1c1ccccc1O)c1ccc(C(F)(F)F)cc1 (stereo unspecified)	> 100	> 100	> 100	> 100	> 200	> 100
O=C(C1=C(O)C(=O)N(c2nnc(SCc3ccccc3)s2)C1c1cccc(O)c1O)c1cc2ccccc2o1 (stereo unspecified)	25 (≈ 13.9 µg/mL)	25 (≈ 13.9 µg/mL)	50 (≈ 27.9 µg/mL)	50 (≈ 27.9 µg/mL)	> 200	> 100
O=C(C1=C(O)C(=O)N(c2nnc(SCc3ccc(Cl)cc3)s2)C1c1ccccc1O)c1cc2ccccc2o1 (stereo unspecified)	50 (≈ 28.8 µg/mL)	50 (≈ 28.8 µg/mL)	25 (≈ 14.4 µg/mL)	25 (≈ 14.4 µg/mL)	> 200	> 100
O=C(C1=C(O)C(=O)N(c2nnc(SCc3ccccc3)s2)C1c1ccccc1O)c1ccc([N+](=O)[O-])cc1 (stereo unspecified)	> 100	> 100	> 100	> 100	> 200	> 100
O=C(C1=C(O)C(=O)N(c2nnc(SCc3ccccc3)s2)C1c1ccccc1O)c1ccc(F)cc1 (stereo unspecified)	> 100	> 100	> 100	> 100	> 200	> 100
O=C(C1=C(O)C(=O)N(c2nnc(SCc3ccccc3Cl)s2)C1c1ccccc1)c1cc2ccccc2o1 (stereo unspecified)	> 100	> 100	> 100	> 100	> 200	> 100
COc1ccc(C(=O)C2=C(O)C(=O)N(c3nnc(SCc4ccccc4)s3)C2c2ccccc2O)cc1 (stereo unspecified)	> 100	> 100	> 100	> 100	> 200	> 100

Further lines, with some results ahead:

MIC (Enterococcus faecalis) [µM]	MIC (Enterococcus faecium) [µM]	MIC (Staphylococcus aureus) [µM]	MIC [3] [µM]	SMILES	HC50 at 1 h [1] [µM]	CC50 at 24 h [2] [µM]
100 (≈ 60.6 µg/mL)	100 (≈ 60.6 µg/mL)	50 (≈ 30.3 µg/mL)	50 (≈ 30.3 µg/mL)	COc1ccc(O)c(C2C(C(=O)c3cc4ccccc4o3)=C(O)C(=O)N2c2nnc(SCc3ccccc3Cl)s2)c1 (stereo unspecified)	> 200	> 100
25 (≈ 14.4 µg/mL)	25 (≈ 14.4 µg/mL)	50 (≈ 28.8 µg/mL)	25 (≈ 14.4 µg/mL)	O=C(C1=C(O)C(=O)N(c2nnc(SCc3cccc(Cl)c3)s2)C1c1ccccc1O)c1cc2ccccc2o1 (stereo unspecified)	> 200	> 100
> 100	> 100	100 (≈ 57.6 µg/mL)	50 (≈ 28.8 µg/mL)	O=C(C1=C(O)C(=O)N(c2nnc(SCc3ccccc3Cl)s2)C1c1ccc(O)cc1)c1cc2ccccc2o1 (stereo unspecified)	> 200	> 100
> 100	> 100	> 100	> 100	O=C(C1=C(O)C(=O)N(c2nnc(SCc3ccccc3Cl)s2)C1c1ccc(O)c(Br)c1)c1cc2ccccc2o1 (stereo unspecified)	> 200	> 100
